Source: US8222300B2, “Methods of treating parkinson's disease using halogenated volatile compounds” (Mouse Specifics, Inc., priority 2007, dated 2012)

System: adult female CD-1 mice
Assay type: in vivo
Method: Isoflurane is a halogenated inhalation anesthetic and is routinely used in laboratory animals for its anesthetic properties. In this experiment, posture and gait in mice after brief isoflurane anesthesia was investigated.
Ventral plane videography was used to image 4 adult female CD-1 mice walking 25 cm/s on a transparent treadmill belt just prior to 5 minutes of isoflurane (2.5% isoflurane final concentration in 100% oxygen) anesthesia. Gait analysis was again performed at 25 cm/s 1, 15, 30 and 60 minutes after the animals regained their righting reflex. Mice were placed in a chamber and delivered the isoflurane via a system which vaporized the isoflurane and mixed it with the oxygen using an anesthesia system (EZ Anesthesia™, Euthanex).
When the mice first emerged from the anesthesia (animals were moved from an anesthesia box to room air, including oxygen and CO2), they were groggy for about 2-40 seconds. Following the brief groggy period, a supranormal function became apparent as their gait (including stride length, stance width, and swing duration) was improved relative to prior to the administration of the isoflurane.

[1] = following cessation of anesthesia

With FC(F)OC(Cl)C(F)(F)F (stereo not shown) [isoflurane, 2-chloro-2-(difluoromethoxy)-1,1,1-trifluoro-ethane] the “Increase of swing duration compared to baseline” value (1 minute after recovery) was ~50%, the Stride length (1 minute after recovery from 5 minutes of 2.5% isoflurane in 100% oxygen, treadmill 25 cm/s, baseline 6.3±0.1 cm, P<0.05) was 7.6±0.2 cm and the Stance width variability (1 minute after recovery from isoflurane, versus baseline) was “lower”. For the same compound, the Swing duration (1 minute after recovery, baseline 77±3 ms, P<0.05) was 103 ± 3 ms, the “Propulsion duration of the hind limbs” value (1 minute after recovery, baseline 128±5 ms, P<0.05) was 167 ± 6 ms and the Stepping frequency (1 minute after recovery, treadmill 25 cm/s, baseline 4.1±0.1 Hz, P<0.05) was 3.3±0.1 Hz. The “Persistence of some supranormal gait characteristics” value [1] was ~30 min, the “Time for all gait metrics to return to baseline” value [1] was ≤ 60 min and the “Duration of groggy period on emergence from anesthesia” value (mouse, in vivo) was 2 to 40 s. The “Increase in stride length” value (some mice emerging from isoflurane anesthesia) was “about 25%”.
